Experimental data: patent US11028090B2 (Dong Wha Pharm. Co., Ltd., priority 2017, dated 2021)
Read-outs that look alike come from different tables or passages of the source.

Molecular target: BRD4 (BD1+BD2) bromodomain (Homo sapiens (Human), UniProt O60885)
Experiment: BRD4 binding inhibition (AlphaScreen, GST-BRD4 vs tetraacetylated histone H4 peptide)
Method in brief: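 GST-BRD4 (BD1+BD2) and biotinylated tetraacetyl-histone H4 peptide, each at 100 nM in HEPES pH 7.4 buffer with BSA and DTT, were combined with compound. Glutathione acceptor and streptavidin donor beads were added, then incubated 30 min at room temperature in the dark. Read-out was AlphaScreen signal.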

[1] = GST-BRD4 (BD1+BD2) / biotinylated acetyl-histone H4 (Lys5,8,12,16) peptide, read-out: IC50, BRD4 binding inhibition
[2] = GST-BRD4 (BD1+BD2) vs biotinylated acetyl-histone H4 peptide, AlphaScreen, read-out: BRD4 IC50

| SMILES | IC50 [1] | IC50 [2] |
| --- | --- | --- |
| Cc1ccc(C(=O)NCCCCNc2nc3ccccc3n3c(C)nnc23)c(Cl)n1 [Example 21, 2-chloro-6-methyl-N-[4-(1-methyl-[1,2,4]triazolo[4,3-a]quinoxaline-4-ylamino)-butyl]-nicotinamide] |  | 57 nM |
| Cc1nnc2c(NCCCCNC(=O)Nc3ccccc3)nc3ccc(F)cc3n12 [Example 53, 1-[4-(8-fluoro-1-methyl-[1,2,4]triazolo[4,3-a]quinoxaline-4-ylamino)-butyl]-3-phenyl-urea] |  | 60 nM |
| Cc1nnc2c(NCCCCN)nc3cc(OC(F)(F)F)ccc3n12 [Example 270, N^1-(1-methyl-7-trifluoromethoxy-[1,2,4]triazolo[4,3-a]quinoxaline-4-yl)-butane-1,4-diamine ditrifluoroacetic acid] |  | 85 nM |
| Cc1nnc2c(NCCCCNC(=O)OC(C)(C)C)nc3cc(N)ccc3n12 [Example 243, [4-(7-amino-1-methyl-[1,2,4]triazolo[4,3-a]quinoxaline-4-ylamino)-butyl]-carbamic acid-tert-butylester] |  | 65 nM |
| Cc1ccc2nc(NCCCCNC(=O)NC(C)(C)C)c3nnc(C)n3c2c1 [Example 44, 1-tert--butyl-3-[4-(1,8-dimethyl-[1,2,4]triazolo[4,3-a]quinoxaline-4-ylamino)-butyl]-urea] |  | 72 nM |
| Cc1nnc2c(NCCCCCC(=O)NC(C)C)nc3ccccc3n12 [Example 661, 6-(1-methyl-[1,2,4]triazolo[4,3-a]quinoxaline-4-ylamino)-hexanoic acid isopropylamide] |  | 78 nM |
| COc1cc2c(cc1C)nc(NCCCCNC(=O)c1ccccc1)c1nnc(C)n12 [Example 154, N-[4-(8-methoxy-1,7-dimethyl-[1,2,4]triazolo[4,3-a]quinoxaline-4-ylamino)-butyl]-benzamide] |  | 78 nM |
| Cc1ccc2nc(NCCCCNC(=O)Nc3ccccc3)c3nnc(C)n3c2c1 [Example 46, 1-[4-(1,8-dimethyl-[1,2,4]triazolo[4,3-a]quinoxaline-4-ylamino)-butyl]-3-phenyl-urea] |  | 73 nM |
| Cc1nnc2c(NCCCCNC(=O)c3ccccc3)nc3ccc(F)cc3n12 [Example 51, N-[4-(8-fluoro-1-methyl-[1,2,4]triazolo[4,3-a]quinoxaline-4-ylamino)-butyl]-benzamide] | ≤ 50 nM |  |
| COc1cc(C)c2c(c1)nc(NCCCCNC(=O)OC(C)C)c1nnc(C)n12 [Example 457, [4-(7-methoxy-1,9-dimethyl-[1,2,4]triazolo[4,3-a]quinoxaline-4-ylamino)-butyl]-carbamic acid-isopropylester] | ≤ 50 nM |  |
| Cc1nnc2c(NCCCCNC(=O)OC(C)(C)C)nc3cc(C(=O)c4ccccc4)ccc3n12 [Example 260, [4-(7-benzoyl-1-methyl-[1,2,4]triazolo[4,3-a]quinoxaline-4-ylamino)-butyl]-carbamic acid-tert-butylester] |  | 62 nM |
| Cc1nnc2c(NCCCCNC(=O)NC(C)(C)C)nc3ccccc3n12 [Example 22, 1-tert-butyl-3-[4-(1-methyl-[1,2,4]triazolo[4,3-a]quinoxaline-4-ylamino)-butyl]-urea] |  | 81 nM |
| COc1cc2c(nc(NCCCCNC(=O)CC(C)C)c3nnc(C)n32)c(OC)c1OC [Example 195, 3-methyl-N-[4-(6,7,8-trimethoxy-1-methyl-[1,2,4]triazolo[4,3-a]quinoxaline-4-ylamino)-butyl]-butyramide] |  | 69 nM |

Further molecules by falling IC50 [2], results first:

| IC50 [1] | IC50 [2] | SMILES |
| --- | --- | --- |
|  | 56 nM | COc1cc2nc(NCCCCCNC(=O)OC(C)(C)C)c3nnc(C)n3c2cc1OC [Example 642, [5-(7,8-dimethoxy-1-methyl-[1,2,4]triazolo[4,3-a]quinoxaline-4-ylamino)-pentyl]-carbamic acid-tert-butylester] |
| ≤ 50 nM | 50 nM | Cc1nnc2c(NCCCCNC(=O)OC(C)(C)C)nc3ccc(Cl)cc3n12 [Example 54, [4-(8-chloro-1-methyl-[1,2,4]triazolo[4,3-a]quinoxaline-4-ylamino)-butyl]-carbamic acid-tert-butylester] |
| ≤ 50 nM | 47 nM | COc1cc(C(F)(F)F)cc2c1nc(NCCCCNC(=O)CC(C)C)c1nnc(C)n12 [Example 145, N-[4-(6-methoxy-1-methyl-8-trifluoromethyl-[1,2,4]triazolo[4,3-a]quinoxaline-4-ylamino)-butyl]-3-methyl-butyramide] |
| ≤ 50 nM | 46 nM | COc1cc2nc(NCCCCNC(=O)CC(C)C)c3nnc(C)n3c2cc1Cc1ccc([N+](=O)[O-])cc1 [Example 339, N-{4-[7-methoxy-1-methyl-8-(4-nitro-benzyl)-[1,2,4]triazolo[4,3-a]quinoxaline-4-ylamino]-butyl}-3-methyl-butyramide] |
| ≤ 50 nM | 44 nM | Cc1nnc2c(NCCCCNC(=O)c3ccc(Cl)c(Cl)c3)nc3ccccc3n12 [Example 16, 3,4-dichloro-N-[4-(1-methyl-[1,2,4]triazolo[4,3-a]quinoxaline-4-ylamino)-butyl]-benzamide] |
| ≤ 50 nM | 39 nM | COCCOc1ccc2c(c1)nc(NCCCCNC(=O)C1CC1)c1nnc(C)n12 [Example 377, cyclopropane carboxylic acid-{4-[7-(2-methoxy-ethoxy)-1-methyl-[1,2,4]triazolo[4,3-a]quinoxaline-4-ylamino]-butyl}-amide] |
| ≤ 50 nM | 39 nM | Cc1nnc2c(NCCCCCC(=O)NCC(C)C)nc3ccccc3n12 [Example 662, 6-(1-methyl-[1,2,4]triazolo[4,3-a]quinoxaline-4-ylamino)-hexanoic acid isobutylamide] |
| ≤ 50 nM | 35 nM | COc1cc2nc(NCCCCNC(=O)CC(C)C)c3nnc(C)n3c2c(OC)c1OC [Example 488, 3-methyl-N-[4-(7,8,9-trimethoxy-1-methyl-[1,2,4]triazolo[4,3-a]quinoxaline-4-ylamino)-butyl]-butyramide] |
| ≤ 50 nM | 34 nM | Cc1nnc2c(NCCCCNC(=O)[C@@H](F)C(C)C)nc3cc(N4C[C@@H](C)O[C@@H](C)C4)ccc3n12 [Example 511, N-{4-[7-(2,6-dimethyl-morphonyl-4-yl)-1-methyl-[1,2,4]triazolo[4,3-a]quinoxaline-4-ylamino]-butyl}-2-(S)-fluoro-3-methyl-butyramide] |
| ≤ 50 nM | 34 nM | CCOC(=O)CC(=O)NCCCCNc1nc2cc(OCCOC)ccc2n2c(C)nnc12 [Example 394, N-{4-[7-(2-methoxy-ethoxy)-1-methyl-[1,2,4]triazolo[4,3-a]quinoxaline-4-ylamino]-butyl}-malonamic acid ethylester] |
| ≤ 50 nM | 27 nM | CCNC(=O)NCCCCNc1nc2cc(OCCOC)ccc2n2c(C)nnc12 [Example 423, 1-ethyl-3-{4-[7-(2-methoxy-ethoxy)-1-methyl-[1,2,4]triazolo[4,3-a]quinoxaline-4-ylamino]-butyl}-urea] |
| ≤ 50 nM | 24 nM | Cc1noc(C)c1-c1ccc2nc(NCCCCNC(=O)[C@H](O)C(C)C)c3nnc(C)n3c2c1 [Example 581, N-{4-[8-(3,5-dimethyl-isoxazol-4-yl)-1-methyl-[1,2,4]triazolo[4,3-a]quinoxaline-4-ylamino]-butyl}-2-(R)-hydroxy-3-methyl-butyramide] |
| ≤ 50 nM | 21 nM | Cc1nnc2c(NCCCCNC(=O)OC(C)(C)C)nc3cc(OC(C)C)ccc3n12 [Example 447, [4-(7-isopropoxy-1-methyl-[1,2,4]triazolo[4,3-a]quinoxaline-4-ylamino)-butyl]-carbamic acid-tert-butylester] |
| ≤ 50 nM | 15 nM | COCCOc1ccc2c(c1)nc(NCCCCNC(=O)[C@@H](NC(=O)[C@@H](O)C(C)C)C(C)C)c1nnc(C)n12 [Example 404, 2-(S,S)-hydroxy-N-(1-{4-[7-(2-methoxy-ethoxy)-1-methyl-[1,2,4]triazolo[4,3-a]quinoxaline-4-ylamino]-butylcarbamoyl}-2-methyl-propyl)-3-methyl-butyramide] |
| ≤ 50 nM | 14 nM | CC(=O)OC(C)(C)C(=O)NCCCCNc1nc2cc(-c3nc4ccccc4n3C)ccc2n2c(C)nnc12 [Example 231, acetic acid-1-{4-[7-(1-methyl-1H-benzoimidazole-2-yl)-1-methyl-[1,2,4]triazolo[4,3-a]quinoxaline-4-ylamino]-butylcarbamoyl}-1-methyl-ethylester] |
| ≤ 50 nM | 12 nM | COc1cc2nc(NCCCCNC(=O)[C@H](O)C(C)C)c3nnc(C)n3c2cc1OC [Example 82, N-[4-(7,8-dimethoxy-1-methyl-[1,2,4]triazolo[4,3-a]quinoxaline-4-ylamino)-butyl]-2-(R)-hydroxy-3-methyl-butyramide] |
| ≤ 10 nM | 10 nM | Cc1noc(C)c1-c1ccc2nc(NCCCCNC(=O)[C@@H](O)C(C)C)c3nnc(C)n3c2c1 [Example 582, N-{4-[8-(3,5-dimethyl-isoxazol-4-yl)-1-methyl-[1,2,4]triazolo[4,3-a]quinoxaline-4-ylamino]-butyl}-2-(S)-hydroxy-3-methyl-butyramide] |
| ≤ 10 nM | 7 nM | COCCn1c(-c2ccc3c(c2)nc(NCCCCNC(=O)CC(C)C)c2nnc(C)n23)nc2ccccc21 [Example 241, N-(4-{7-[1-(2-methoxy-ethyl)-1H-benzoimidazole-2-yl]-1-methyl-[1,2,4]triazolo[4,3-a]quinoxaline-4-ylamino}-butyl)-3-methyl-butyramide] |
| ≤ 10 nM | 5 nM | Cc1nnc2c(NCCCCN)nc3cc(OC(C)C)ccc3n12 [Example 448, N^1-(7-isopropoxy-1-methyl-[1,2,4]triazolo[4,3-a]quinoxaline-4-yl)-butane-1,4-diamine ditrifluoroacetic acid] |
